Source: patent publication US10874104B2, “Pesticidally active pryazole derivatives” (SYNGENTA PARTICIPATIONS AG, priority 2016, dated 2020)
Read-outs that look alike come from different tables or passages of the source.

Columns and labels:
Format in all cases: in vivo
[1] = system: Diabrotica balteata (Corn Root Worm); experiment: Diabrotica balteata (corn root worm), sprayed maize sprouts on agar, mortality; conditions: 96 h
Procedure: Diabrotica balteata (Corn Root Worm):
Maize sprouts placed onto an agar layer in 24-well microtiter plates were treated with aqueous test solutions prepared from 10′000 ppm DMSO stock solutions by spraying. After drying, the plates were infested with L2 larvae (6 to 10 per well). The samples were assessed for mortality 4 days after infestation.

[2] = system: Myzus persicae (Green Peach Aphid); experiment: Myzus persicae (green peach aphid), feeding/contact activity, mortality; conditions: 144 h, application rate 200 ppm, aphid population of mixed ages, 6 days after infestation
Procedure: Myzus persicae (Green Peach Aphid): Feeding/Contact Activity
Sunflower leaf discs were placed onto agar in a 24-well microtiter plate and sprayed with aqueous test solutions prepared from 10′000 ppm DMSO stock solutions. After drying, the leaf discs were infested with an aphid population of mixed ages. The samples were assessed for mortality 6 days after infestation.

[3] = system: Spodoptera littoralis (Egyptian Cotton Leaf Worm); experiment: Spodoptera littoralis (Egyptian cotton leaf worm), feeding/contact activity, mortality; conditions: 72 h
Procedure: Spodoptera littoralis (Egyptian Cotton Leaf Worm): Feeding/Contact Activity
Cotton leaf discs were placed onto agar in 24-well microtiter plates and sprayed with aqueous test solutions prepared from 10′000 ppm DMSO stock solutions. After drying the leaf discs were infested with five L1 larvae. The samples were assessed for mortality 3 days after infestation.

[4] = system: Plutella xylostella (Diamond Back Moth); experiment: Plutella xylostella (diamond back moth), feeding/contact activity on artificial diet, mortality; conditions: 120 h
Procedure: Plutella xylostella (Diamond Back Moth): Feeding/Contact Activity
24-well microtiter plates with artificial diet were treated with aqueous test solutions prepared from 10′000 ppm DMSO stock solutions by pipetting. After drying, the plates were infested with L2 larvae (10 to 15 per well). The samples were assessed for mortality 5 days after infestation.

[5] = system: Euschistus heros (Neotropical Brown Stink Bug); experiment: Euschistus heros (neotropical brown stink bug), feeding/contact activity, mortality; conditions: 120 h
Procedure: Euschistus heros (Neotropical Brown Stink Bug): Feeding/contact activity
Soybean leaves on agar in 24-well microtiter plates were sprayed with aqueous test solutions prepared from 10′000 ppm DMSO stock solutions. After drying the leaves were infested with N2 nymphs. The samples were assessed for mortality 5 days after infestation.

[6] = system: Tetranychus urticae (Two-Spotted Spider Mite); experiment: Tetranychus urticae (two-spotted spider mite), feeding/contact activity, mortality; conditions: 192 h, application rate 200 ppm, mixed population (mobile stages), 8 days after infestation
Procedure: Tetranychus urticae (Two-Spotted Spider Mite): Feeding/Contact Activity
Bean leaf discs on agar in 24-well microtiter plates were sprayed with aqueous test solutions prepared from 10′000 ppm DMSO stock solutions. After drying the leaf discs were infested with a mite population of mixed ages. The samples were assessed for mortality on mixed population (mobile stages) 8 days after infestation.

[7] = system: Thrips tabaci (Onion Thrips); experiment: Thrips tabaci (onion thrips), feeding/contact activity, mortality; conditions: 144 h
Procedure: Thrips tabaci (Onion Thrips): Feeding/Contact Activity
Sunflower leaf discs were placed on agar in 24-well microtiter plates and sprayed with aqueous test solutions prepared from 10′000 ppm DMSO stock solutions. After drying the leaf discs were infested with a thrips population of mixed ages. The samples were assessed for mortality 6 days after infestation.

[8] = application rate 200 ppm, L2 larvae, 4 days after infestation, read-out: mortality
[9] = application rate 200 ppm, L1 larvae, 3 days after infestation, read-out: mortality
[10] = application rate 200 ppm, L2 larvae on artificial diet, 5 days after infestation, read-out: mortality
[11] = application rate 200 ppm, N2 nymphs, 5 days after infestation, read-out: mortality
[12] = application rate 200 ppm, thrips population of mixed ages, 6 days after infestation, read-out: mortality

Measured: mortality at 200 ppm

Cn1nc(C(F)(F)C(F)(F)F)c(OC(F)F)c1-n1cc(-c2ccc(Cl)c(C(=O)NC3(C#N)CC3)c2)cn1 [Compound 1, 2-chloro-N-(1-cyanocyclopropyl)-5-[1-[4-(difluoromethoxy)-2-methyl-5-(1,1,2,2,2-pentafluoroethyl)pyrazol-3-yl]pyrazol-4-yl]benzamide]
≥ 80%: [1]; [8] | [2] | [3]; [9] | [4]; [10] | [5]; [11] | [6]

Cn1nc(C(F)(F)C(F)(F)F)c(OC(F)F)c1-n1cc(-c2ccc(Cl)c(C(=O)NC3CC3)c2)cn1 [Compound 2, 2-Chloro-N-cyclopropyl-5-[1-[4-(difluoromethoxy)-2-methyl-5-(1,1,2,2,2-pentafluoroethyl)-pyrazol-3-yl]pyrazol-4-yl]benzamide]
≥ 80%: [1]; [8] | [2] | [3]; [9] | [4]; [10] | [5]; [11] | [6]

COc1c(C(F)(F)C(F)(F)F)nn(C)c1-n1cc(-c2ccc(Cl)c(C(=O)NC3CC3)c2)cn1 [Compound 6]
≥ 80%: [1]; [8] | [7]; [12] | [3]; [9] | [4]; [10] | [5]; [11] | [6]

C=Cc1c(C(F)(F)C(F)(F)F)nn(C)c1-n1cc(-c2ccc(Cl)c(C(=O)NC3(C#N)CC3)c2)cn1 [Compound 15, 2-Chloro-N-(1-cyanocyclopropyl)-5-[1-[2-methyl-5-(1,1,2,2,2-pentafluoroethyl)-4-vinyl-pyrazol-3-yl]pyrazol-4-yl]benzamide]
≥ 80%: [1]; [8] | [2] | [3]; [9] | [4]; [10] | [5]; [11] | [6]

C#Cc1c(C(F)(F)C(F)(F)F)nn(C)c1-n1cc(-c2ccc(Cl)c(C(=O)NC3(C#N)CC3)c2)cn1 [Compound 17]
≥ 80%: [1]; [8] | [2] | [4]; [10] | [5]; [11] | [6]

C#Cc1c(C(F)(F)C(F)(F)F)nn(C)c1-n1cc(-c2ccc(Cl)c(C(=O)NC3CC3)c2)cn1 [Compound 18]
≥ 80%: [3]; [9]

Cn1nc(C(F)(F)C(F)(F)F)c(S(=O)(=O)C2CC2)c1-n1cc(-c2ccc(Cl)c(C(=O)NC3CC3)c2)cn1 [Compound 33]
≥ 80%: [1]; [8] | [7]; [12] | [3]; [9] | [4]; [10] | [5]; [11] | [6]

Cn1nc(C(F)(F)C(F)(F)F)c(S(=O)(=O)C2CC2)c1-n1cc(-c2ccc(Cl)c(C(=O)NC3(C#N)CC3)c2)cn1 [Compound 35]
≥ 80%: [1]; [8] | [7]; [12] | [3]; [9] | [4]; [10] | [5]; [11] | [6]

Cn1nc(C(F)(F)C(F)(F)F)c(OC(F)(F)C(F)F)c1-n1cc(-c2ccc(Cl)c(C(=O)NC3(C#N)CC3)c2)cn1 [Compound 37]
≥ 80%: [1]; [8] | [7]; [12] | [3]; [9] | [4]; [10] | [5]; [11] | [6]

CCOc1c(C(F)(F)C(F)(F)F)nn(C)c1-n1cc(-c2ccc(Cl)c(C(=O)NC3(C#N)CC3)c2)cn1 [Compound 38]
≥ 80%: [1]; [8] | [3]; [9] | [4]; [10] | [5]; [11] | [6]

Cn1nc(C(F)(F)C(F)(F)F)c(OCC(F)F)c1-n1cc(-c2ccc(Cl)c(C(=O)NC3(C#N)CC3)c2)cn1 [Compound 39]
≥ 80%: [1]; [8] | [3]; [9] | [4]; [10] | [5]; [11] | [6]

Cn1nc(C(F)(F)C(F)(F)F)c(OC(F)(F)C(F)(F)C(F)(F)F)c1-n1cc(-c2ccc(Cl)c(C(=O)NC3(C#N)CC3)c2)cn1 [Compound 40]
≥ 80%: [1] | [7] | [3] | [4] | [5]

Cn1nc(C(F)(F)C(F)(F)F)c(OC(F)(F)C(F)C(F)(F)F)c1-n1cc(-c2ccc(Cl)c(C(=O)NC3(C#N)CC3)c2)cn1 (stereo not drawn) [Compound 43]
≥ 80%: [1]; [8] | [7]; [12] | [3]; [9] | [4]; [10]

Cn1nc(C(F)(F)C(F)(F)F)c(OCC(F)F)c1-n1cc(-c2ccc(Cl)c(C(=O)NC3CC3)c2)cn1 [Compound 44]
≥ 80%: [1]; [8] | [3]; [9] | [4]; [10] | [6]

Cn1nc(C(F)(F)C(F)(F)F)c(OC(F)(F)C(F)(F)C(F)(F)F)c1-n1cc(-c2ccc(Cl)c(C(=O)NC3CC3)c2)cn1 [Compound 45]
≥ 80%: [1] | [7] | [3] | [4]

Cn1nc(C(F)(F)C(F)(F)F)c(OC(F)(F)C(F)C(F)(F)F)c1-n1cc(-c2ccc(Cl)c(C(=O)NC3CC3)c2)cn1 (stereo not drawn) [Compound 46]
≥ 80%: [1]; [8] | [7]; [12] | [3]; [9] | [4]; [10]

Cn1nc(C(F)(F)C(F)(F)F)c(OC(F)F)c1-n1cc(-c2cc(C(=O)NC3CC3)c(Cl)cc2F)cn1 [Compound 47]
≥ 80%: [4]; [10]

Cn1nc(C(F)(F)C(F)(F)F)c(OC(F)(F)C(F)C(F)(F)F)c1-n1cc(-c2ccc(Cl)c(C(=O)NCc3ccccc3)c2)cn1 (stereo not drawn) [Compound 57]
≥ 80%: [2]

CCN(C(=O)c1cc(-c2cnn(-c3c(OC(F)F)c(C(F)(F)C(F)(F)F)nn3C)c2)ccc1C#N)C1CC1 [Compound 58]
≥ 80%: [1]; [8]

CN(C(=O)c1cc(-c2cnn(-c3c(OC(F)F)c(C(F)(F)C(F)(F)F)nn3C)c2)ccc1C#N)C1CC1 [Compound 59]
≥ 80%: [1]; [8]

CN(C(=O)c1cc(-c2cnn(-c3c(OC(F)F)c(C(F)(F)C(F)(F)F)nn3C)c2)ccc1C#N)C1(C#N)CC1 [Compound 61]
≥ 80%: [1]; [8]

Cn1nc(C(F)(F)C(F)(F)F)c(OC(F)F)c1-n1cc(-c2ccc(C#N)c(C(=O)NC3CC3)c2)cn1 [Compound 62]
≥ 80%: [1]; [8]

Cn1nc(C(F)(F)C(F)(F)F)c(OC(F)F)c1-n1cc(-c2ccc(Cl)c(C(=O)NC3(C#N)CC3)c2)nn1 [Compound 64, 2-Chloro-N-(1-cyanocyclopropyl)-5-[1-[4-(difluoromethoxy)-2-methyl-5-(1,1,2,2,2-pentafluoroethyl)pyrazol-3-yl]triazol-4-yl]benzamide]
≥ 80%: [1]; [8]

Cn1nc(C(F)(F)C(F)(F)F)c(OC(F)F)c1-n1cc(-c2ccc(Cl)c(C(=O)NC3CC3)c2)nn1 [Compound 65]
≥ 80%: [1]; [8]
